Experimental data: paper PMC9667936, “Functional mapping of the 14-3-3 hub protein as a guide to design 14-3-3 molecular glues” (Chemical Science, 2022)
Where a SMILES comes first, the peptide text is derived from it. [ ]: non-standard residue; d: D form. ξ: configuration not given here. Phe(4-NO2) = N[C@@H](Cc1ccc([N+](=O)[O-])cc1)C(=O)O; ξAla(4-thiazolyl) = NC(Cc1cscn1)C(=O)O; pS = N[C@@H](COP(=O)(O)O)C(=O)O; Nva = CCC[C@H](N)C(=O)O; ξβ3hS = NC(CO)CC(=O)O; βAla = NCCC(=O)O

Target: T1, 14-3-3γ (Homo sapiens, UniProt P61981)
T1 construct: made in house; host or cells: E. coli NiCo21 (DE3)
T1 sequence (P61981 1-247): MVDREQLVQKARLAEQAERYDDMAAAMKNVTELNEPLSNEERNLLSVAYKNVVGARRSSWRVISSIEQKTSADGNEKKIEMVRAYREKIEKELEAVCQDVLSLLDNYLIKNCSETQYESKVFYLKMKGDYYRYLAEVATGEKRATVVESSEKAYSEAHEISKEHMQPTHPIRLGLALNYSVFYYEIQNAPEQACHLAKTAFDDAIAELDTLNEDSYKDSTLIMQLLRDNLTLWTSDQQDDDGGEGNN
Assay: Isothermal titration calorimetry (ITC) of 14-3-3 binding to peptide
Details: ITC; for ΔH (ITC) / -TΔS (ITC) / ΔG (ITC) / KD (ITC) / ΔG / ΔH / -TΔS: 25 °C
Method: 14-3-3γ protein expression (FP/ITC experiments)
A pPROEX HTb expression vector encoding the human 14-3-3 protein gamma (14-3-3γ) with an N-terminal his6-tag was transformed by heat shock into NiCo21 (DE3) competent cells. Single colonies were cultured in 50 mL LB medium (100 µg/mL ampicillin). After overnight incubation at 37 °C, cultures were transferred to 2 L TB media (100 µg/mL ampicillin, 1 mM MgCl2) and incubated at 37 °C until an OD600 nm of 0.8-1.2 was reached. Protein expression was then induced with 0.4 mM isopropyl-β-d-thiogalactoside (IPTG), and cultures were incubated overnight at 18 °C. Cells were harvested by centrifugation (8600 rpm, 20 minutes, 4 °C) and resuspended in lysis buffer (50 mM Hepes, pH 8.0, 300 mM NaCl, 12.5 mM imidazole, 5 mM MgCl2, 2 mM βME) containing cOmplete™ EDTA-free Protease Inhibitor Cocktail tablets (1 tablet/100 ml lysate) and benzonase (1 µl/100 ml). After lysis using a C3 Emulsiflex-C3 homogenizer (Avestin), the cell lysate was cleared by centrifugation (20000 rpm, 30 minutes, 4 °C) and purified using Ni2+-affinity chromatography (Ni-NTA superflow cartridges, Qiagen).
Typically two 5 mL columns (flow 5 mL/min) were used for a 2 L culture in which the lysate was loaded on the column washed with 10 CV wash buffer (50 mM Hepes, pH 8.0, 300 mM NaCl, 25 mM imidazole, 2 mM βME) and eluted in several fractions (2-4 CV) of elution buffer (50 mM Hepes, pH 8.0, 300 mM NaCl, 250 mM imidazole, 2 mM βME). Fractions containing the 14-3-3 protein were combined and dialyzed into 25 mM HEPES pH 8.0, 100 mM NaCl, 10 mM MgCl2, 500 µM TCEP. […]
The peptides 1 and 2a-d were synthesized on 50 µmol scale on a Rink amide MBHA resin (Novabiochem, 0.52 mmol/g loading) using an automated Intavis MultiPep RSi peptide synthesizer.
Deprotection was performed twice per cycle with 20% v/v piperidine in DMF for 8 minutes. Fmoc-protected amino acids were mixed in 5 equivalents of HBTU and 9 equivalents of DIPEA in DMF, and coupled to the resin. With the exception of phosphoserine, which was coupled once for 60 minutes, all amino acids were coupled to the resin twice for 30 minutes. Capping of unreacted amino acids was performed with a mixture of acetic anhydride/pyridine/DMF (1:1:3) for 5 minutes. βAla was incorporated as a spacer between the sequence and Lys(Alloc), to which a FITC fluorophore will be coupled for fluorescence anisotropy studies.
The peptides 1 and 2e-i were synthesized manually on a 50 µmol scale using Rink amide MBHA resin (Novabiochem, 0.52 mmol/g loading) via Fmoc based solid phase peptide synthesis. […]
(lex: 485 ± 20 nm; lem: 535 ± 25 nm; mirror: Dichroic 510; flashes: 20; integration time: 50 ms; settle time:
0 ms; gain: optimal; and Z-position: calculated from well). […]
Data was obtained and averaged based on two
To determine the cooperativity parameters from the 2D-titration of 14-3-3/ChREBP/2d (as described above) we have used the general framework for straightforward model construction of multi-component thermodynamic equilibrium systems as described by Geertjens et al. (2021).10 This general platform generates a model to describe multi-component equilibrium systems when given a system description.
In our case we gave the following system description: […]
α (with 95% confidence interval) and the error-landscape of the determine parameters.
Fluorescence anisotropy (FA) – Selectivity study: Peptides representing 14-3-3 binding partners (including ChREBP) were titrated in a 2-fold dilution series (starting at 100 µM) to 20 nM of fluorescein-labeled peptide 2d in presence and absence of, respectively, 2 µM 14-3-3γ in FA buffer (10 mM HEPES pH 7.4, 150 mM NaCl, 0.1% (v/v) Tween20, 0.1% (w/v) BSA). Dilution series were made in a polystyrene (non-binding) low-volume Corning Black Round Bottom 384-well plates (Corning 4514 or 4511).
Measurements were performed directly after plate preparation, using a Tecan Infinite F500 plate reader at room temperature (lex: 485 ± 20 nm; lem: 535 ± 25 nm; mirror: Dichroic 510; flashes: 20; integration […]

`CCC[C@H](NC(=O)[C@H](N)CCCCN)C(=O)N[C@@H](Cc1ccc([N+](=O)[O-])cc1)C(=O)NC(Cc1cscn1)C(=O)N[C@@H](COP(=O)(O)O)C(=O)N[C@@H](Cc1ccc([N+](=O)[O-])cc1)C(=O)NC(CO)CC(=O)NCCC(=O)N[C@@H](Cc1ccc([N+](=O)[O-])cc1)C(=O)N[C@@H](CCCCN)C(N)=O` (stereo partly drawn) [compound 1] (H-[dK][Nva][Phe(4-NO2)][ξAla(4-thiazolyl)][pS][Phe(4-NO2)][ξβ3hS][βAla][Phe(4-NO2)]K-NH2) was tested, and the “free binding energy ΔG (ITC)” value was -10.0 kcal/mol, the “ΔH (ITC)” value (Table S1 (unit given in Fig. 4 legend), mean of n = 2) was -10.7 kcal/mol and the “-TΔS (ITC)” value (Table S1, mean of n = 2) was 0.7 kcal/mol. The “ΔG (ITC)” value (Table S1, mean of n = 2) was -10.0 kcal/mol, the “-TΔS (ITC)” value (Table S1, replicate 1) was 0.9 kcal/mol and the “KD (ITC)” value (Table S1, replicate 1) was 44.7 nM. The “ΔG (ITC)” value (Table S1, replicate 1) was -10.0 kcal/mol, the “ΔH (ITC)” value (Table S1, replicate 1) was -11.0 kcal/mol and the “-TΔS (ITC)” value (Table S1, replicate 2) was 0.4 kcal/mol. For the same compound, the “KD (ITC)” value (Table S1, replicate 2) was 45.3 nM, the “ΔG (ITC)” value (Table S1, replicate 2) was -10.0 kcal/mol and the “ΔH (ITC)” value (Table S1, replicate 2) was -10.5 kcal/mol. It also gave a ΔG (Table S5, mean of n = 2) of -10.0 kcal/mol, a ΔG (Table S5, replicate 1) of -10.0 kcal/mol and a ΔG (Table S5, replicate 2) of -10.0 kcal/mol. The ΔH (Table S6 (unit given in Fig. 4 legend), average of two runs) was -10,71 kcal mol^-1, the “-TΔS” value (Table S6, average of two runs) was 0,68 kcal mol^-1 and the ΔG (Table S6, average of two runs) was -10,03 kcal mol^-1. The “-TΔS” value (Table S6, run 1) was 0,933 kcal mol^-1, the ΔG (Table S6, run 1) was -10,03 kcal mol^-1 and the ΔH (Table S6, run 1) was -10,96 kcal mol^-1. For the same compound, the “-TΔS” value (Table S6, run 2) was 0,426 kcal mol^-1, the ΔG (Table S6, run 2) was -10,02 kcal mol^-1 and the ΔH (Table S6, run 2) was -10,45 kcal mol^-1.
